Read-outs that look alike come from different tables or passages of the source.
Columns and labels:
[1] = Stability of analytes in rat plasma QC samples under storage conditions; assay type: physicochemical; conditions: n = 6; for Stability during 24 h at 4°C, RE: post-treatment storage in autosampler; for −80°C for 30 days, RE / Three freeze–thaw cycles, RE: rat plasma; for −80°C for 30 days, RE: long-term; for Three freeze–thaw cycles, RE: −80°C to room temperature
Experimental: The stability of QC samples in six replicates at three concentrations (low, medium, and high levels) was analyzed under different storage conditions: the post-treatment stability was analyzed after storage in an autosampler (4°C) for 24 h. Freeze–thaw stability was investigated after three freeze–thaw cycles (−80°C to room temperature as one cycle). Long-term stability was assessed by analyzing QC samples kept at −80°C for 30 days. The concentrations of the analytes in the plasma samples and the QC samples were calculated by the calibration standard curve prepared each day. The stabilities of analytes were acceptable when the accuracy (RE, %) and precision (RSD, %) of all QC samples in all storage conditions were within ±15% compared to nominal concentrations.

[2] = Pharmacokinetic study in rats after oral administration of cinobufacini capsule (UPLC-MS/MS of plasma); assay type: in vivo, rat; conditions: for AUC(0-inf) / AUC(0-t) / Cmax / Tmax / CL/F / MRT last / MRT inf / half-life / Vd/F: male, Sprague-Dawley, in vivo, rat plasma, mean ± SD, n = 6; for CL/F: read-out: CLz/F (converted); for MRT last: read-out: MRT0-t; for MRT inf: read-out: MRT0-∞; for half-life: read-out: T1/2z (converted); for Vd/F: read-out: Vz/F
Experimental: Male Sprague–Dawley rats (weighing 200–220 g) of SPF grade were offered by Sippr/BK laboratory Animal, Corp., Ltd. (Shanghai, China) and fed in the Laboratory Animal Center of the Shanghai University of Traditional Chinese Medicine. All the rats were kept under environmentally controlled conditions with constant temperature (22–24°C) and humidity (60–65%). The animal experiment program in the present research was approved by the Animal Committee of the Shanghai University of Traditional Chinese Medicine (PZSHUTCM210618012).
An Agilent 1290 liquid chromatographic system includes a G4220A quaternary pump, a G1326C column incubator, a G4226A automatic sampler, and a G1330B degasser. The column temperature was set to 35°C. A measure of 5 µL of samples were separated in an Agilent SB-C18 column (2.1 mm ×50 mm, 1.8 μm) and eluted at 0.3 ml/min, followed by gradient elution with water (0.1% V/V formic acid) (A) and acetonitrile (B) (0–1 min, 20%–20% B; 1–3.5 min, 20%–80% B; 4–4.1 min, 80%-20% B; 4.1–6 min, 20% B). The total run time was 6 minutes.
An Agilent 1290 Infinity series UPLC system was combined with an Agilent 6460 series triple quadrupole mass spectrometer (Agilent Technologies, Santa Clara, CA, United States) to quantify all 13 analytes in an ESI-positive ionization mode. Quantitative analysis was performed in an MRM mode. The mass spectrum conditions were as follows: capillary voltage, 4000V; drying gas (N2), gas flow rate: 10 L/min; sprayer, 30 psi; gas temperature 350°C; The delta EMV (+) 200 V; collision gas (N2); dwell time, 25 ms. Agilent’s MassHunter Workstation software was used for data collection, peak area calculation, and quantitative analysis.
A measure of 50 µL of the plasma sample was mixed with 10 µL of the internal standard solution (345 ng/ml) in a 1.5-ml centrifuge tube and vortexed for 5 min. The samples were extracted by 500 µL of ethyl acetate for 5 min and centrifuged at 4°C for 10 min (18000 rpm). All the supernatants were collected into another 1.5-ml centrifuge tube, dried under a gentle stream of nitrogen at 37°C, and then added with 50 µL of 80% methanol for resolution. The resolution samples were centrifuged at 4°C for 10 min (18000 rpm), and 5 µL supernatant was extracted and injected for analysis.
Twenty-four male Sprague–Dawley rats (weigh 200–220 g) were divided into four groups with six rats in each group randomly, including three capsule groups at three different doses and one injection group. In the instructions for cinobufacini capsule and injection, the clinical dosage for adults is 2 g per 70 kg orally and 20 ml per 70 kg intravenously, converting to rat doses of 180 mg/kg and 1.8 ml/kg, respectively.
In the pre-experiments, we compared cinobufacini capsule of 180 mg/kg (one-time clinical dose) and 900 mg/kg (five times of clinical dose) and Cinobufacini injection of 1.8 ml/kg, but concentrations of some compounds in plasma were too low and difficult to be quantified. […] The experimental rats were led to fast the night and were free to get access to water for 12 h before the pharmacokinetic study. After administration, blood samples (approximately 150 μL) of rats were collected via retro-orbital sinus into heparinized centrifuge tubes at 0.05, 0.083, 0.25, 0.5, 0.75, 1, 2, 4, 6, 8, and 10 h. After centrifugation at 5,000 rpm for 10 min, the plasma was transferred to 1.5-ml polypropylene tubes and stored at −80°C until UPLC-MS/MS analysis.
GraphPad Prism software (version 8.0.2) was used to draw the mean plasma concentration–time curves of all analytes. The pharmacokinetic parameters were calculated by DAS 3.2.8 software. Meanwhile, the pharmacokinetic data on rats were presented as mean ± standard deviation (SD). Differences of pharmacokinetic parameters between groups were analyzed by the t-test using SPSS software (version 26.0). Differences were considered significant statistically when the p-values were <0.05 and very significant statistically when the p-values were <0.01.

[3] = high QC level (249.58–250.28 ng/ml)
[4] = medium QC level (49.92–50.06 ng/ml)
[5] = oral cinobufacini capsule 0.9 g/kg (low)
[6] = oral cinobufacini capsule 1.8 g/kg (medium)
[7] = oral cinobufacini capsule 3.6 g/kg (high)

| Structure (SMILES) | Stability during 24 h at 4°C, RE [1, 3] | Stability during 24 h at 4°C, RE ([1]; low QC level (4.99–5.00 ng/ml)) | Stability during 24 h at 4°C, RE [1, 4] | −80°C for 30 days, RE [1, 3] | −80°C for 30 days, RE ([1]; low QC level (4.99–5.00 ng/ml)) | −80°C for 30 days, RE [1, 4] | Three freeze–thaw cycles, RE [1, 3] | Three freeze–thaw cycles, RE ([1]; low QC level (4.99–5.00 ng/ml)) | Three freeze–thaw cycles, RE [1, 4] | AUC(0-inf) [2, 5] | AUC(0-t) [2, 5] | Cmax [2, 5] | Tmax [2, 5] | CL/F [2, 5] | MRT last [2, 5] | MRT inf [2, 5] | half-life [2, 5] | Vd/F [2, 5] | AUC(0-inf) [2, 6] | AUC(0-t) [2, 6] | also measured |
| --- | --- | --- | --- | --- | --- | --- | --- | --- | --- | --- | --- | --- | --- | --- | --- | --- | --- | --- | --- | --- | --- |
| C[C@]12CC[C@H]3[C@@H](CC[C@]4(O)C[C@@H](O)CC[C@]34C=O)[C@@]1(O)CC[C@@H]2c1ccc(=O)oc1 [HBG, hellebrigenin] | 0.8% | 10.2% | −4.7% | −1.3% | −5.0% | 8.9% | 1.5% | 9.3% | −2.1% | 4.21 ± 2.23 ng·h/mL | 3.97 ± 1.73 ng·h/mL | 2.47 ± 1.38 ng/mL | 0.94 ± 0.75 h | 237 mL/min/kg | 3.59 ± 1.63 h | 3.81 ± 1.99 h | 1.02 ± 0.6 h | 14.2 ± 3.88 L/kg | 13.8 ± 5.4 ng·h/mL | 13.7 ± 4.3 ng·h/mL | Cmax [2, 6]: 8.36 ± 2.92 ng/mL; Tmax [2, 6]: 0.68 ± 0.35 h; CL/F [2, 6]: 110 mL/min/kg; MRT last [2, 6]: 2.28 ± 1.26 h; MRT inf [2, 6]: 2.55 ± 1.53 h; half-life [2, 6]: 1.34 ± 1.09 h; Vd/F [2, 6]: 11.1 ± 5.04 L/kg; AUC(0-inf) [2, 7]: 31.1 ± 11.4 ng·h/mL; AUC(0-t) [2, 7]: 31.1 ± 11.4 ng·h/mL; Cmax [2, 7]: 18.2 ± 5.84 ng/mL; Tmax [2, 7]: 0.39 ± 0.2 h; CL/F [2, 7]: 118 mL/min/kg; MRT last [2, 7]: 2.14 ± 0.83 h; MRT inf [2, 7]: 2.14 ± 0.82 h; half-life [2, 7]: 0.63 ± 0.1 h; Vd/F [2, 7]: 6.35 ± 2.55 L/kg |
| C[C@]12CC[C@H](O)C[C@H]1CC[C@@H]1[C@@H]2CC[C@]2(C)[C@@H](c3ccc(=O)oc3)[C@@H](O)[C@H]3O[C@]132 [DCG, desacetylcinobufagin] | 4.6% | 1.5% | 6.7% | −3.8% | 1.9% | 3.8% | −2.8% | 3.0% | 4.9% | 67 ± 15.3 ng·h/mL | 61.7 ± 7.8 ng·h/mL | 17.2 ± 4.77 ng/mL | 0.83 ± 0.2 h | 13 mL/min/kg | 3.95 ± 0.73 h | 4.74 ± 1.56 h | 1.22 ± 0.81 h | 2.8 ± 1.71 L/kg | 112 ± 14.9 ng·h/mL | 100 ± 12.4 ng·h/mL | Cmax [2, 6]: 35.6 ± 2.59 ng/mL; Tmax [2, 6]: 0.89 ± 0.13 h; CL/F [2, 6]: 12 mL/min/kg; MRT last [2, 6]: 3 ± 0.63 h; MRT inf [2, 6]: 4.86 ± 0.46 h; half-life [2, 6]: 4.76 ± 0.52 h; Vd/F [2, 6]: 5.62 ± 0.68 L/kg; AUC(0-inf) [2, 7]: 150 ± 30 ng·h/mL; AUC(0-t) [2, 7]: 148 ± 30.2 ng·h/mL; Cmax [2, 7]: 56.6 ± 7.79 ng/mL; Tmax [2, 7]: 0.82 ± 0.12 h; CL/F [2, 7]: 17.2 mL/min/kg; MRT last [2, 7]: 2.44 ± 0.41 h; MRT inf [2, 7]: 2.65 ± 0.44 h; half-life [2, 7]: 2.09 ± 0.6 h; Vd/F [2, 7]: 2.79 ± 1.51 L/kg; time to reach maximum plasma concentration (Cmax) ([2]; rats, after gavage administration of cinobufacini capsule): ≤ 60 min |

— paper PMC9343874, “Comparative Pharmacokinetics of Cinobufacini Capsule and Injection by UPLC-MS/MS” (Frontiers in Pharmacology, 2022)
